Experiments:
Rattus norvegicus [1] = test: Acid output from the stomach (control value = 120.3+/-19.7) in pylorus ligated rats (20 mg/kg po of the Compound was administered 1 hr before the pylorus ligation); type: functional
Rattus norvegicus [2] = test: Percent inhibition of gastric lesions induced by endomethacin was measured, after administration of 7.5 mg/kg po in rats; type: functional; conditions: Stomach
Rattus norvegicus [3] = test: Reduction in length (control value = 159.2+/-21) of gastric lesions induced by ethanol was measured, after administration of 10 mg/kg po in rats; type: functional, Stomach
Rattus norvegicus [4] = test: pH of the gastric juice (Control value = 1.42+/-0.02) of stomach content of pylorus ligated rats was measured (5 mg/kg po of the Compound was administered 1 hr before the pylorus ligation); type: ADME, organism-based; conditions: in vivo
Rattus norvegicus [5] = test: Volume of the gastric juice (Control value = 4.7+/-0.4) of stomach content of pylorus ligated rats was measured (10 mg/kg po of the Compound was administered 1 hr before the pylorus ligation); type: functional
Rattus norvegicus [6] = test: pH of the gastric juice (Control value = 1.42+/-0.02) of stomach content of pylorus ligated rats was measured (20 mg/kg po of the Compound was administered 1 hr before the pylorus ligation); type: ADME, organism-based; conditions: in vivo
Rattus norvegicus [7] = test: Volume of the gastric juice (Control value = 4.7+/-0.4) of stomach content of pylorus ligated rats was measured (5 mg/kg po of the Compound was administered 1 hr before the pylorus ligation); type: functional
Rattus norvegicus [8] = test: Acid output from the stomach (control value = 120.3+/-19.7) in pylorus ligated rats (10 mg/kg po of the Compound was administered 1 hr before the pylorus ligation); type: functional
Rattus norvegicus [9] = test: Reduction in length (control value = 59.8+/-6) of gastric lesions induced by endomethacin was measured, after administration of 2.5 mg/kg po in rats; type: functional, Stomach
Rattus norvegicus [10] = test: Percent inhibition of gastric lesions induced by endomethacin was measured, after administration of 2.5 mg/kg po in rats; type: functional; conditions: Stomach
Rattus norvegicus [11] = test: Reduction in length (control value = 59.8+/-6) of gastric lesions induced by endomethacin was measured, after administration of 5 mg/kg po in rats; type: functional, Stomach
Rattus norvegicus [12] = test: Percent inhibition of gastric lesions induced by endomethacin was measured, after administration of 10 mg/kg po in rats; type: functional; conditions: Stomach
Rattus norvegicus [13] = test: pH of the gastric juice (Control value = 1.42+/-0.02) of stomach content of pylorus ligated rats was measured (10 mg/kg po of the Compound was administered 1 hr before the pylorus ligation); type: ADME, organism-based; conditions: in vivo
Rattus norvegicus [14] = test: Reduction in length (control value = 159.2+/-21) of gastric lesions induced by endomethacin was measured, after administration of 20 mg/kg po in rats; type: functional, Stomach
Rattus norvegicus [15] = test: Volume of the gastric juice (Control value = 4.7+/-0.4) of stomach content of pylorus ligated rats was measured (20 mg/kg po of the Compound was administered 1 hr before the pylorus ligation); type: functional
Rattus norvegicus [16] = test: Reduction in length (control value = 59.8+/-6) of gastric lesions induced by endomethacin was measured, after administration of 7.5 mg/kg po in rats; type: functional, Stomach
Rattus norvegicus [17] = test: Reduction in length (control value = 159.2+/-21) of gastric lesions induced by ethanol was measured, after administration of 15 mg/kg po in rats; type: functional, Stomach
Rattus norvegicus [18] = test: Percent inhibition of gastric lesions induced by ethanol was measured, after administration of 15 mg/kg po in rats; type: functional; conditions: Stomach
Rattus norvegicus [19] = test: Percent inhibition of gastric lesions induced by endomethacin was measured, after administration of 5 mg/kg po in rats; type: functional; conditions: Stomach
Rattus norvegicus [20] = test: Acid output from the stomach (control value = 120.3+/-19.7) in pylorus ligated rats (5 mg/kg po of the Compound was administered 1 hr before the pylorus ligation); type: functional
Rattus norvegicus [21] = test: Percent inhibition of gastric lesions induced by ethanol was measured, after administration of 10 mg/kg po in rats; type: functional; conditions: Stomach
Rattus norvegicus [22] = test: Percent inhibition of gastric lesions induced by ethanol was measured, after administration of 20 mg/kg po in rats; type: functional; conditions: Stomach

pH (Rattus norvegicus [4]): 1.63
pH (Rattus norvegicus [6]): 5.54
pH (Rattus norvegicus [13]): 1.8
SMILES: COc1ccc2[nH]c([S+]([O-])Cc3ncc(C)c(OC)c3C)nc2c1 (configuration not stated) [OMEPRAZOLE]
Acid output (Rattus norvegicus [1]): 14.6 u equiv hr-1
inhibition in vivo at 7.5 mg/kg (Rattus norvegicus [2]): 86.6%
Length (Rattus norvegicus [3]): 90.6 mm
Volume (Rattus norvegicus [5]): 2.5 ml 4hr-1
Volume (Rattus norvegicus [7]): 3.3 ml 4hr-1
Acid output (Rattus norvegicus [8]): 46.8 u equiv hr-1
Length (Rattus norvegicus [9]): 34.4 mm
inhibition in vivo at 2.5 mg/kg (Rattus norvegicus [10]): 42.5%
Length (Rattus norvegicus [11]): 24.6 mm
inhibition in vivo at 10 mg/kg (Rattus norvegicus [12]): 98.2%
Length (Rattus norvegicus [14]): 16.9 mm
Volume (Rattus norvegicus [15]): 2.2 ml 4hr-1
Length (Rattus norvegicus [16]): 8 mm
Length (Rattus norvegicus [17]): 28.6 mm
inhibition in vivo at 15 mg/kg (Rattus norvegicus [18]): 82%
inhibition in vivo at 5 mg/kg (Rattus norvegicus [19]): 58.9%
Acid output (Rattus norvegicus [20]): 62.6 u equiv hr-1
inhibition in vivo at 10 mg/kg (Rattus norvegicus [21]): 43.1%
inhibition in vivo at 20 mg/kg (Rattus norvegicus [22]): 89.4%

Reference: ChEMBL document CHEMBL1144970, “Protective effects of steroid saponins from Paris polyphylla var. yunnanensis on ethanol- or indomethacin-induced gastric mucosal lesions in rats: structural requirement for activity and mode of action” (Bioorg Med Chem Lett, 2003)
